Test results taken from patent publication US7767411B2, “Assay system for specific inhibitors of protein kinase C-related kinases” (Universitaetsklinikum Freiburg, priority 2004, dated 2010).

How the values were obtained:
[1] = system: androgen receptor (AR) activation by RhoA V14; test: ligand-dependent activation of the androgen receptor (AR) by RhoA V14, MMTV-LUC reporter in 293 cells; type: cell-based; details: RhoA V14 plasmid, with or without R 1881 10^-10 M, 5×10^−7 M Ro31-8220
From the text: In another preferred embodiment, the assay system comprises the reaction of the ligand-dependent activation of the androgen receptor (AR) by RhoA V 14. […] Reference is made, in this respect, to FIG. 2.

protein kinases = details: described in S. P. Davies et al.; cited from earlier work
MCF-7 cells = test: androgen receptor agonist R 1881-induced cell proliferation in MCF-7 cells; type: cell-based; details: presence or absence of R1881, FIG. 3
Protocol: The inventors studied the cell proliferation inter alia in MCF-7 cells which is induced by the androgen receptor agonist R 1881 under the activating/promoting action of PRKs. MCF-7 cells were cultivated in RPMI 1640 supplemented with 2 g/l NaHCO3, L-Glu, Pen/Strep, 10% FCS (fetal calf serum), and insulin 1U/ml in the presence or absence of R1881 and Ro31-8220 at the indicated concentrations. The cell proliferation assay was performed according to the manufacture's instructions (Roche, #1647229).

SMILES | agonist-dependent androgen receptor (AR) activation by RhoA V14 [1] | protein kinases acted on (specificity) (protein kinases) | R 1881-induced cell proliferation (MCF-7 cells)
Cn1cc(C2=C(c3cn(CCCSC(=N)N)c4ccccc34)C(=O)NC2=O)c2ccccc21 [Ro31-8220] | abolished | act on PRKs, but also on MSK1, S6K1 and other protein kinases | inhibited
C[C@@H](N)[C@H]1CC[C@H](C(=O)Nc2ccncc2)CC1 [Y 27632] |  | act on PRKs, but also on MSK1, ROCK-II and MAPKAP-K1b | 
